pIC50: −log10 of the molar value.
Tests used:
[1] = molecular target: CDK4/Cyclin D3 (Homo sapiens, UniProt P11802); assay: Inhibition of recombinant human full length N-terminal GST-tagged CDK4/Cyclin-D3 co-expressed in baculovirus infected sf21 cells using Rb substrate in presence of [gamma33P]ATP after 10 mins by scintillation counting method
[2] = molecular target: T1, Histone deacetylase 1 (Homo sapiens, UniProt Q13547); assay: Inhibition of HDAC1 (unknown origin)
[3] = molecular target: T1, Histone deacetylase 1; assay: Potency index, ratio of vorinostat IC50 to compound IC50 for HDAC1 (unknown origin)

Chain of CDK4/Cyclin D3 (P11802 whole entry): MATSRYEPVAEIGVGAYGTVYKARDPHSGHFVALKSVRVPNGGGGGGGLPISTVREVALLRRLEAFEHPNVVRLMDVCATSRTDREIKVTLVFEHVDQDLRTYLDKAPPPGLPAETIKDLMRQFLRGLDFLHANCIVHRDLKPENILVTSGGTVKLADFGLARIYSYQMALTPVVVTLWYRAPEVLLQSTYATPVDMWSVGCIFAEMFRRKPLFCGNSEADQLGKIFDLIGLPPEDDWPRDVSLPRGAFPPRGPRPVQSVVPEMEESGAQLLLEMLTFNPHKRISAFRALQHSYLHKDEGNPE
Chain of CDK4/Cyclin D3 (P30281 whole entry, further chain): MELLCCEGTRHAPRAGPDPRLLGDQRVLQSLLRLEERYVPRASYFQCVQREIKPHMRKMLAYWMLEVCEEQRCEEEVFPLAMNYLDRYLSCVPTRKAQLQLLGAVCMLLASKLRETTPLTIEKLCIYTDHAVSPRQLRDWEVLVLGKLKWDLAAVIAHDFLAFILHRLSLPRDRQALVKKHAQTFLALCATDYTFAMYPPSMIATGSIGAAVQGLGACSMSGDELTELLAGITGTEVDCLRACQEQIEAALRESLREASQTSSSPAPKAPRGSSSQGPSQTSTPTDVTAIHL
T1 sequence (Q13547 whole entry): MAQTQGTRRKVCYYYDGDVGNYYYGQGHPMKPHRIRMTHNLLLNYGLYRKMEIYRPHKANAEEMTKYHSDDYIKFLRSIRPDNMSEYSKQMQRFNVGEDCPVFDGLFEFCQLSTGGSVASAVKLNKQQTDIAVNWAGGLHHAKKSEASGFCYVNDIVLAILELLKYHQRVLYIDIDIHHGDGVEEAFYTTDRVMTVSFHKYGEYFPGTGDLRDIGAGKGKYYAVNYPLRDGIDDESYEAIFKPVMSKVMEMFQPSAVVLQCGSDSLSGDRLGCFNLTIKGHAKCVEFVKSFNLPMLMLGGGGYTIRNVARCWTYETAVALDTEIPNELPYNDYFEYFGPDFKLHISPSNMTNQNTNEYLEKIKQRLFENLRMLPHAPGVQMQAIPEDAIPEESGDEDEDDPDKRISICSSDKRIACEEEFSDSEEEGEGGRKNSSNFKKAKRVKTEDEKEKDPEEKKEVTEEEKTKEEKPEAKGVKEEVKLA

SMILES	pIC50 [1]	pIC50 [2]	Ratio IC50 [3]
CCCCCCCCC(=O)Nc1ccc(Nc2ncc3cc(C(=O)N(C)C)n(C4CCCC4)c3n2)cc1	6.91		
CN(C)C(=O)c1cc2cnc(Nc3cccc(NC(=O)CCCCCCC(=O)NO)c3)nc2n1C1CCCC1	7.52	9.08	10 to 100
CN(C)C(=O)c1cc2cnc(Nc3ccccc3NC(=O)CCCCCCC(=O)NO)nc2n1C1CCCC1	< 5.30	7.43	10 to 100
COC(=O)CCCCCCC(=O)NCc1ccc(Nc2ncc3cc(C(=O)N(C)C)n(C4CCCC4)c3n2)cc1	7.60		
CN(C)C(=O)c1cc2cnc(Nc3ccc(C(=O)NCCCCC(=O)NO)cc3)nc2n1C1CCCC1	7.96		
COC(=O)CCCCCCC(=O)Nc1ccc(Nc2ncc3cc(C(=O)N(C)C)n(C4CCCC4)c3n2)cc1	7.92	< 5.30	10 to 100
CN(C)C(=O)c1cc2cnc(Nc3ccc(C(=O)NCCCCCCCC(=O)NO)cc3)nc2n1C1CCCC1	7.59	8.80	10 to 100
COC(=O)CCCCC(=O)Nc1ccc(Nc2ncc3cc(C(=O)N(C)C)n(C4CCCC4)c3n2)cc1	8.32		
CN(C)C(=O)c1cc2cnc(Nc3ccc(NC(=O)CCCCC(=O)NO)cc3)nc2n1C1CCCC1	7.96	7.57	10 to 100
COC(=O)CCCCCCC(=O)Nc1ccc(Nc2ncc3ncn(C4CCCC4)c3n2)cc1	< 5.30	< 5.30	10 to 100
CN(C)C(=O)c1cc2cnc(Nc3ccc(N4CCN(C(=O)CCCCCCC(=O)NO)CC4)cn3)nc2n1C1CCCC1	7.89	7.41	10 to 100
CN(C)C(=O)c1cc2cnc(Nc3ccc(NC(=O)CCCCCCCO)cc3)nc2n1C1CCCC1	8.00	< 5.30	10 to 100
COC(=O)CCCCCCCNC(=O)c1ccc(Nc2ncc3cc(C(=O)N(C)C)n(C4CCCC4)c3n2)cc1	8.09		
COC(=O)CCCCNC(=O)c1ccc(Nc2ncc3cc(C(=O)N(C)C)n(C4CCCC4)c3n2)cc1	8.20		
COC(=O)CCCCCCC(=O)Nc1ncc2cc(C(=O)N(C)C)n(C3CCCC3)c2n1	< 5.30		
CCCCCC(=O)Nc1ccc(Nc2ncc3cc(C(=O)N(C)C)n(C4CCCC4)c3n2)cc1	8.00	< 5.30	10 to 100
COC(=O)CCCCCCC(=O)Nc1cccc(Nc2ncc3cc(C(=O)N(C)C)n(C4CCCC4)c3n2)c1	7.59		
COC(=O)CCCCCCC(=O)NNc1ncc2cc(C(=O)N(C)C)n(C3CCCC3)c2n1	< 5.30		
CN(C)C(=O)c1cc2cnc(Nc3ccc(C(=O)NCCCCCC(=O)NO)cc3)nc2n1C1CCCC1	8.02	9.28	10 to 100
CN(C)C(=O)c1cc2cnc(Nc3ccc(NC(=O)CCCCCC(=O)NO)cc3)nc2n1C1CCCC1	8.00	9.08	10 to 100
CN(C)C(=O)c1cc2cnc(Nc3ccc(C(=O)NCCCCCCC(=O)NO)cc3)nc2n1C1CCCC1	7.92	8.85	10 to 100

— ChEMBL document CHEMBL4020842, “Discovery of N1-(4-((7-Cyclopentyl-6-(dimethylcarbamoyl)-7 H-pyrrolo[2,3- d]pyrimidin-2-yl)amino)phenyl)- N8-hydroxyoctanediamide as a Novel Inhibitor Targeting Cyclin-dependent Kinase 4/9 (CDK4/9) and Histone Deacetlyase1 (HDAC1) against Malignant Cancer” (J Med Chem, 2018)
